Reference: article PMC12145819, “Challenging activity and signaling bias in tachykinin NK1 and NK2 receptors by truncated neuropeptides” (The Journal of Biological Chemistry, 2025)
No end group written: not given here.

Columns and labels:
NK2R WT (human TACR2) [1] = target: T1, NK2R WT (human TACR2) (Homo sapiens, UniProt P21452); experiment: BRET-based cAMP assay (Gs activation), NK2R; assay type: cell-based
T1 construct: host or cells: COS7 cells, transient calcium-precipitation transfection
T1 sequence (P21452 1-398): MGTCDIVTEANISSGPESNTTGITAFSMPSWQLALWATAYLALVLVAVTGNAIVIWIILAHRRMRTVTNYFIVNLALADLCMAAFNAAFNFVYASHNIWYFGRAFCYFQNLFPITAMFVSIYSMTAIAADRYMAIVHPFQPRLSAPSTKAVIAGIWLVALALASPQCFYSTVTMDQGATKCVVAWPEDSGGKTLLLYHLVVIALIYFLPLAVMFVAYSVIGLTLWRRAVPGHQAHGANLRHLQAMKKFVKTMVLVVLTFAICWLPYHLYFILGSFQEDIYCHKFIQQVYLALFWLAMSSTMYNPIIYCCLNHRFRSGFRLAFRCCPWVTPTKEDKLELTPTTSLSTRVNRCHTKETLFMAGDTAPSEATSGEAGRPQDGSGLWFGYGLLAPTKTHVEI
Method: (§1) All receptor constructs of WT and modified human TACR1 and TACR2 were inserted into the pcDNA3.1(+)-C-DYK vector (Genscript) whereas CAMYEL ([34]) was expressed via pcDNA3.1(+) vector.
COS7 cells were tested monthly for mycoplasma and kept negative. COS7 cells were plated in either clear- or white- or white with clear bottom 96-well plates that were coated with poly-D-lysine (Sigma-Aldrich) 30 min prior to cell seeding (20.000 cells/well). The following day plates were transiently transfected using calcium precipitation with 200 ng/well DNA of receptor DNA and for the cAMP assays a 1000 ng/well of CAMYEL in a culture medium with the addition of 100 μM (final concentration) chloroquine. Transfection was stopped 5 h later with the addition of a fresh maintenance medium.
(§2) The intracellular level of cAMP was monitored in real-time using BRET. This was achieved by implementing a construct consisting of a cAMP binding protein (exchange protein activated by cAMP (EPAC)) which has been flanked by a BRET pair consisting of Renilla luciferase (Rluc) and yellow fluorescent protein (YFP). This construct is called CAMYEL (cAMP sensor using YFP-Epac-Rluc) and enables cAMP production to be sensed as Epac change conformations in response to increasing levels of cAMP, ultimately resulting in a loss of BRET signal.
On the day of the assay, white 96-well plates with COS7 cells were washed twice with 100 μl/well Hank’s balanced salt solution (HBSS) (GIBCO, Life Technologies) and preincubated for 30 min at 37 °C with 85 μl HBSS. Luciferase substrate coelenterazine h (Thermo Fisher Scientific) was added to a final concentration of 5 μM, and a baseline measurement was taken after 5 min. […] Determinations were made in minimum duplicates.
(§3) In both assay formats, the measurement window could shift between runs without affecting the overall curve shape. Emax and Emin values often shifted uniformly upward or downward, while the sigmoidal profile remained consistent, contributing to increased standard deviation.
(§4) All concentration-response curves have been calculated using Prism 10 software (GraphPad Software, www.graphpad.com) nonlinear regression with four parameters. SD is used for concentration-response curves to illustrate variability in experimental measurements. However, when comparing LogEC50 values, standard error of the mean (SEM) is used to reflect the precision of the estimated means and facilitate statistical comparisons. This approach ensures an accurate representation of variability while maintaining appropriate statistical rigor for hypothesis testing. All data consist of two technical replicates from three biological replicates. Statistical significance of differences between LogEC50 values (based on SEM estimates) was assessed using an unpaired two-tailed t test. Normal distribution of LogEC50 values was confirmed by the Shapiro–Wilk test. p-Values were represented using asterisks: ns for p > 0.05 (not significant), ∗ for p ≤ 0.05, ∗∗ for p ≤ 0.01, ∗∗∗ for p ≤ 0.001, and ∗∗∗∗ for p ≤ 0.0001.

NK2R WT (human TACR2) [2] = target: T1, NK2R WT (human TACR2); experiment: IP3 accumulation assay (Gq activation), NK2R; assay type: cell-based
Method: (§5) COS7 cells were plated in either clear- or white- or white with clear bottom 96-well plates that were coated with poly-D-lysine (Sigma-Aldrich) 30 min prior to cell seeding (20.000 cells/well). The following day plates were transiently transfected using calcium precipitation with 200 ng/well DNA of receptor DNA and for the cAMP assays a 1000 ng/well of CAMYEL in a culture medium with the addition of 100 μM (final concentration) chloroquine. Transfection was stopped 5 h later with the addition of a fresh maintenance medium.
(§6) COS7 cells seeded in clear 96-well plates were incubated with 0.5 μCi/ml myo [3H]inositol (PerkinElmer) in 100 μl growth medium overnight following the transfection. The subsequent day cells were washed twice with 200 μl/well HBSS (GIBCO, Life Technologies) and preincubated for 5 min at 37 °C with 100 μl/well HBSS buffer supplemented with 10 mM LiCl. Ligand addition was followed by 90 min incubation at 37 °C. To stop ligand incubation, cells were lysed with 40 μl 10 mM formic acid followed by 30 min incubation on ice. Subsequently, 35 μl of the lysate was transferred to white 96-well plates together with 60 μl of 1:8 diluted YSi SPA scintillation beads (PerkinElmer). Plates were sealed and vigorously shaken for 15 min followed by 5 min centrifugation at 1500 rpm. Measurements (scintillation) were recorded on a MicroBeta (PerkinElmer) after a 4 h delay, and determinations were made in duplicates.
as §3, §4

[3] = test system: NK1R-R177 mutated to alanine; conditions: NK1R-R177 to alanine vs WT; cited from earlier work
[4] = test system: NK1R-R177 mutated to lysine; conditions: NK1R-R177 to lysine vs WT; cited from earlier work
[5] = test system: NK1R-Q24 mutated to asparagine; conditions: NK1R-Q24 to asparagine vs WT; cited from earlier work
NK1R WT (human TACR1) [6] = target: T2, NK1R WT (human TACR1) (Homo sapiens, UniProt P25103); experiment: BRET-based cAMP assay (Gs activation), NK1R; assay type: cell-based
T2 construct: host or cells: COS7 cells, transient calcium-precipitation transfection
Method: as §1
COS7 cells were maintained in Dulbecco's modified Eagle's medium 1885 with GlutaMAX supplemented with 10% fetal bovine serum (Sigma-Aldrich), 100 units/ml penicillin and 100 μg/ml streptomycin at 37 °C with 10% CO2. […] COS7 cells were plated in either clear- or white- or white with clear bottom 96-well plates that were coated with poly-D-lysine (Sigma-Aldrich) 30 min prior to cell seeding (20.000 cells/well). The following day plates were transiently transfected using calcium precipitation with 200 ng/well DNA of receptor DNA and for the cAMP assays a 1000 ng/well of CAMYEL in a culture medium with the addition of 100 μM (final concentration) chloroquine. Transfection was stopped 5 h later with the addition of a fresh maintenance medium.
as §2
On the day of the assay, white 96-well plates with COS7 cells were washed twice with 100 μl/well Hank’s balanced salt solution (HBSS) (GIBCO, Life Technologies) and preincubated for 30 min at 37 °C with 85 μl HBSS. Luciferase substrate coelenterazine h (Thermo Fisher Scientific) was added to a final concentration of 5 μM, and a baseline measurement was taken after 5 min. […] The BRET signal was calculated as the ratio of emission intensity at 535 nm (citrine) to the emission intensity at 475 nm (luciferase). Determinations were made in minimum duplicates.
as §3
All concentration-response curves have been calculated using Prism 10 software (GraphPad Software, www.graphpad.com) nonlinear regression with four parameters. SD is used for concentration-response curves to illustrate variability in experimental measurements. However, when comparing LogEC50 values, standard error of the mean (SEM) is used to reflect the precision of the estimated means and facilitate statistical comparisons. […] All data consist of two technical replicates from three biological replicates. Statistical significance of differences between LogEC50 values (based on SEM estimates) was assessed using an unpaired two-tailed t test. Normal distribution of LogEC50 values was confirmed by the Shapiro–Wilk test. p-Values were represented using asterisks: ns for p > 0.05 (not significant), ∗ for p ≤ 0.05, ∗∗ for p ≤ 0.01, ∗∗∗ for p ≤ 0.001, and ∗∗∗∗ for p ≤ 0.0001.

NK1R WT (human TACR1) [7] = target: T2, NK1R WT (human TACR1); experiment: IP3 accumulation assay (Gq activation), NK1R; assay type: cell-based
Method: as §5, §6, §3, §4

NK1R [8] = conditions: cited from earlier work
NK1R [9] = conditions: cited from earlier work; remark: listed apart in the source
[10] = Fig. 6A, given as log(EC50), transfected COS7 cells, three independent experiments in duplicates, read-out: log(EC50), cAMP - NK2R WT (converted)
[11] = Fig. 6B, given as log(EC50), transfected COS7 cells, three independent experiments in duplicates, read-out: log(EC50), IP3 - NK2R WT (converted)
[12] = Fig. 2A, acetylated analogs, given as log(EC50), transfected COS7 cells, three independent experiments in duplicates
[13] = read-out: log(EC50), IP3 - NK1R WT (converted)
[14] = read-out: log(EC50), cAMP - NK1R WT (converted)
[15] = Fig. 2C, analogs with free N termini, given as log(EC50), transfected COS7 cells, three independent experiments in duplicates
[16] = Fig. 2D, analogs with free N termini, given as log(EC50), transfected COS7 cells, three independent experiments in duplicates

T2 sequence (P25103 whole entry): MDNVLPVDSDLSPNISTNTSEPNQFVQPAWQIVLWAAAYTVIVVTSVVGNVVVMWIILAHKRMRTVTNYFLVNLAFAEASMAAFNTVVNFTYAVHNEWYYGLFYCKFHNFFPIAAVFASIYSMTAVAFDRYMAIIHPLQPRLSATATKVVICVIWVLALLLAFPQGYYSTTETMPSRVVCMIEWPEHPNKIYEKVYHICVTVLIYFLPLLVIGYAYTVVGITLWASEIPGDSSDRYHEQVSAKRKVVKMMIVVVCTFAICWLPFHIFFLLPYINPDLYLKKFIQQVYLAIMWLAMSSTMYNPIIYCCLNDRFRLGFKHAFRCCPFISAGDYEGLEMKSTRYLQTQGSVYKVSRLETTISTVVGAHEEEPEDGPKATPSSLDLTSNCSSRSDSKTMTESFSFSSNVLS

CSCC[C@H](NC(=O)[C@H](CC(C)C)NC(=O)CNC(=O)[C@@H](NC(=O)[C@H](Cc1ccccc1)NC(=O)[C@H](CO)NC(=O)[C@H](CC(=O)O)NC(C)=O)C(C)C)C(N)=O [Ac-DSFVGLM-NH2]
EC50 (NK2R WT (human TACR2) [1]; [10]): 50.1 nM | EC50 (NK2R WT (human TACR2) [2]; [11]): 20 nM

CSCC[C@H](NC(=O)[C@H](CC(C)C)NC(=O)CNC(=O)[C@@H](NC(=O)[C@H](Cc1ccccc1)NC(=O)[C@H](CO)NC(=O)[C@@H](N)CC(=O)O)C(C)C)C(N)=O [DSFVGLM-NH2]
EC50 (NK2R WT (human TACR2) [1]): 10 nM | increase in Gs potency compared to acetylated counterpart (NK2R WT (human TACR2) [1]; NK2R, Fig. 6A, analog with a free N terminal): five | EC50 (NK2R WT (human TACR2) [2]): 10 nM

CSCC[C@H](NC(=O)[C@H](CC(C)C)NC(=O)CNC(=O)[C@H](Cc1ccccc1)NC(=O)[C@H](Cc1ccccc1)NC(=O)[C@H](CCC(N)=O)NC(=O)[C@H](CCC(N)=O)NC(=O)[C@@H]1CCCN1C(=O)[C@H](CCCCN)NC(=O)[C@@H]1CCCN1C(=O)[C@@H](N)CCCNC(=N)N)C(N)=O [SP, substance P]
reduction of binding affinity for SP (factor) [3]: 46 | reduction of binding affinity for SP (factor) [4]: 60 | reduction of binding affinity for SP (factor) [5]: five

Ac-QFFGLM-NH2 [Ac-QFFGLM-NH2]
EC50 (NK1R WT (human TACR1) [6]; [12]): 3.98 nM | reduction in Gs potency (NK1R WT (human TACR1) [6]; NK1R, relative to SP): 5.0 fold | EC50 (NK1R WT (human TACR1) [7]; [13]): 1.58 nM

Ac-QQFFGLM-NH2 [Ac-QQFFGLM-NH2]
EC50 (NK1R WT (human TACR1) [6]; [12]): 1.26 nM | EC50 (NK1R WT (human TACR1) [7]; [13]): 3.16 nM

Ac-SFVGLM-NH2 [Ac-SFVGLM-NH2]
EC50 (NK1R WT (human TACR1) [6]; [14]): 200 nM | EC50 (NK1R WT (human TACR1) [7]; [13]): 7.94 nM | EC50 (NK2R WT (human TACR2) [1]; [10]): 316 nM | EC50 (NK2R WT (human TACR2) [2]; [11]): 50.1 nM

QFFGLM-NH2 [QFFGLM-NH2]
EC50 (NK1R WT (human TACR1) [6]; [15]): 15.8 nM | EC50 (NK1R WT (human TACR1) [7]; [16]): 12.6 nM | EC50 (NK1R WT (human TACR1) [7]; Fig. 5A, Gq activation, given as log(EC50), transfected COS7 cells, three independent experiments in duplicates): 20 nM | lower Gq potency (NK1R WT (human TACR1) [7]; NK1R, Fig. 5A, compared with acetylated analog and SP): 15 fold | activity in IP3 accumulation assay (Gq) compared to SP (NK1R [8]): half activity | lower activity in BRET-based cAMP assay (Gs) compared to SP (NK1R [9]): 16 fold

QQFFGLM-NH2 [QQFFGLM-NH2]
EC50 (NK1R WT (human TACR1) [6]; [15]): 7.94 nM | EC50 (NK1R WT (human TACR1) [7]; [16]): 5.01 nM

SFVGLM-NH2 [SFVGLM-NH2]
EC50 (NK1R WT (human TACR1) [6]; [14]): 316 nM | EC50 (NK1R WT (human TACR1) [7]; [13]): 50.1 nM | EC50 (NK2R WT (human TACR2) [1]; [10]): 1580 nM | EC50 (NK2R WT (human TACR2) [2]; [11]): 200 nM
